The record followed here is a melting point compilation (Tetko et al.; mined from patent text by program, amines drawn as free bases though some values may be those of a salt).

Each structure is given as a SMILES string.

Usually melting point stands for the temperature, or range, at which the solid turns liquid. Regarding `COc1ccc(S(=O)(=O)C2(C(=O)NO)CCN(CC=C(C)C)CC2)cc1`, the melting point lay within 142 to 145 °C.
The figure for `O=C1OCC2=C1C(c1ccccc1[N+](=O)[O-])C1=C(COC1=O)N2` is 273 to 274 °C; for `COc1cc(C(C#N)O[Si](C)(C)C(C)(C)C)cc(OC)c1OC` (stereo not given) it is 43 °C.
The figure for `COc1ccc(CNc2ncccc2C(=O)Nc2cccc(C(F)(F)F)c2)cn1` is 185 °C; for `C#CCN1CCC[C@H](NCc2ccccc2OC)[C@@H]1c1ccccc1` (relative stereo) it is 147 to 149 °C.
For the compound `NC(=O)Cc1c(-c2ccccc2)nn2cccnc12`, the melting point lay within 217 to 219 °C.
`COc1ccc(C(=O)N2c3ccccc3C(n3c4ccccc4c4ccccc43)=CC2C)cc1OC` (stereo not given) came in with a melting point of 184 to 185 °C.
Next, `COc1ccc(C(=O)CCCCCBr)cc1F`: 47 to 48 °C.
In turn, `CCC1Cc2cc(OCC(=O)O)c(C)c(C)c2C1=O` (stereo not given) showed a melting point of 206 °C.
Next, `O=C(O)CC(Sc1cccs1)C(=O)O` (stereo not given): 136 to 138 °C; `O=CNc1ccccc1-c1cc2ccccc2[nH]1`: 147 to 149 °C.
With `Cn1nc(-c2ccc(F)cc2F)cc1C(F)(F)F`, the melting point was 51 °C.
Take `O=C1Nc2ccc(Oc3cc(F)c(C(F)(F)F)c(Cl)c3)cc2C12CC2`: the melting point was 168 to 170 °C.
On to `CC12CCC3=C(CCC(CCCC#N)O3)C1=CCC2=O` (stereo not given), for which the melting point amounted to 100 °C.
On to `O=C1N=C(N2CCOCC2)SC1Cc1cccc(-c2ccc(O)c(C34CC5CC(CC(C5)C3)C4)c2)c1` (stereo not given), for which the melting point fell in the range of 129 to 131 °C.
The figure for `CON(C)C(=O)Nc1ccc(OCc2ccc(C(C)C)cc2)cc1` is 87.5 to 88 °C; for `CCCC(c1ccc(C(=O)OC)cc1OCc1ccc(Cl)cc1Cl)n1ccnc1` (stereo not given) it is 104 °C.
Next, `CC1(C)N=C(S)N=C(N)N1`: 186 to 188 °C.
Next, `Cc1ccc2c(c1)c(Cc1nc3c(F)c(F)cc(F)c3s1)cn2CC(=O)O`: 131 to 133 °C.
`CN1C=NC(Cc2ccccc2)(Cc2ccccc2)C1=O`: the melting point was in the range of 125 to 126 °C.
`CCCc1ncc(CN2C(=O)c3ccccc3C2=O)s1` yielded a melting point of 72 °C.
On to `CC(C)c1nn(-c2ccc(C(F)(F)F)cn2)cc1CCCOc1c(F)cccc1CC(=O)O`, for which the melting point lay within 140 to 141 °C.
Next, `CCCCCCC/C=C\CCCCCCCC(O)CCCNC(C)=O` (stereo not given): 50 to 52 °C; `COCCOc1cc(Cc2cnc(N)nc2N)cc2c1NCCC2`: 149 to 151 °C.
Compound `O=C1CN(S(=O)(=O)CC(Cc2ccccc2)C(=O)O)CCN1` (stereo not given) registered a melting point of 168 to 171 °C.
For `COc1ccc(OC)c(CN2CCc3cc(O)ccc3C2)c1`, the melting point fell in the range of 178 to 192 °C.
`CC(=O)Nc1cccc(-c2cnc3c(c2)nc(-c2cccnc2N)n3-c2ccc(CNC(=O)c3ccccc3)cc2)c1`: the melting point lay within 76 to 81 °C.
The figure for `CC(C)(C)OC(=O)N1CCC(NC(=O)c2ccc(-n3cccn3)cc2)CC1` is 170 to 171 °C; for `O=S(=O)(Nc1cccc(CCOCc2ccc(-c3ccc(Cl)cc3)cc2)c1)C(F)(F)F` it is 69 to 70 °C.
Next, `CCOCC(=O)OC1(C(=O)CO)CCC2C3CCC4=CC(=O)CCC4(C)C3C(O)CC21C` (stereo not given): 161 °C.
With `COc1ccc(COc2nc(C3CC3)c3cc(-c4cccc(Cl)c4)ccc3n2)cc1`, the melting point was 158 to 159 °C.
The figure for `Cc1cc(O)c2ccccc2c1OCc1ccccc1` is 159 to 161 °C; for `Cc1ccc(C(=S)c2cc(Cl)cc3c2NC(=O)C3)cc1` it is 179 to 181 °C; for `Cn1c(Oc2ccc(-n3c4ncccc4n4ccnc34)cc2)nc2ccccc21` it is 232 to 234 °C.
The figure for `Nc1ccc2c(=O)n3c(nc2c1)C(=Cc1ccccc1)CC3` is 268 to 270 °C; for `CCC(C)COc1ccc(-c2ccc(OS(=O)(=O)c3ccc(C)cc3)cc2)cc1` (stereo not given) it is 94 to 97 °C; for `CNCC1Cc2cc(-c3ccc(F)cc3)cc(F)c2O1` (stereo not given) it is more than 250 °C.
`CC(=O)N[C@H](Cc1ccc(C(=O)c2ccccc2)cc1)C(=O)O` came in with a melting point of 186 to 187 °C.
Next, `O=Cc1cccc(/C=C/c2ccc3ccc(Cl)cc3n2)c1`: 146 to 150 °C; `Cc1ccc(-c2nc3ccc(C(=O)O)cn3c2CN(C)C(=O)CC(C)C)cc1`: 227 to 229 °C; `O=C(OCC1OC(n2cnc3c(NOCc4ccccc4)nc(Cl)nc32)C(OC(=O)c2ccccc2)C1OC(=O)c1ccccc1)c1ccccc1` (stereo not given): 115 to 119 °C.
The compound `Cn1nnnc1CC(=O)c1cc(F)c(F)cc1N` came in with a melting point of 162 to 164 °C.
Next, `Cc1ccc(C(N)=O)cc1NC(=O)COCCO`: 118 to 119 °C; `Cn1ncc(C(=O)N2CC(F)C2)c1C(=O)Nc1ccc2nc(-c3ccccc3)nn2c1`: 243 °C.
The figure for `C#CCOc1cc2ccccc2cc1COC(=O)C1CC1` is 58 to 60 °C; for `C[C@H](c1ccccc1)N1CCO[C@@H](c2ccc(Br)cc2)C1` it is 85 to 87 °C; for `C[C@@H](N(CC(=O)O)C(=O)c1ccc(C(F)(F)F)cc1)[C@](O)(Cn1cncn1)c1ccc(Cl)cc1Cl` (relative stereo) it is 140 to 142 °C.
Regarding `CN(Cc1ccc(OC(F)(F)F)cc1)C(=O)OC[C@@]1(C)Cn2cc([N+](=O)[O-])nc2O1`, the melting point was in the range of 123 to 124 °C.
The figure for `CN(C)Cc1cc2ccc(C(=O)NN)cc2n1S(C)(=O)=O` is 170 to 173 °C; for `CCOC(=O)c1cnoc1-c1ccc(Cl)cc1` it is 58 to 60 °C.
The figure for `CCCCCCC(C(=O)N1CC(O)CC1C(=O)O)n1cnc2cc(-c3ccccc3-c3nn[nH]n3)ccc21` (stereo not given) is 155 to 160 °C; for `CCCc1nn(C)c2c(=O)[nH]c(-c3sc(S(=O)(=O)N4CCN(C)CC4)cc3OCC)nc12` it is 219 to 220 °C.
Next, `O=C(c1ccnc(Cl)c1)N1CC(c2ccc(F)cc2)C2(CCN(Cc3ccccc3)CC2)C1` (stereo not given): 70 to 72 °C; `Cn1nc(-c2cccc(N3Cc4cc(C(C)(C)C)ccc4C3=O)c2CO)cc(Nc2ccncn2)c1=O`: 236 to 238 °C.
`CC(C)c1cccc(C(C)C)c1NC(=O)CN1CCN(CCOc2nc3ccccc3[nH]2)CC1` returned a melting point of 205 to 206 °C.
In turn, `C(=Cc1ccc(-c2nnc(-c3ccccc3)o2)cc1)c1ccc(-c2cnn(-c3ccccc3)n2)cc1` yielded a melting point of 209 to 210 °C.
The figure for `Nc1sc2c(c1C(=O)c1ccccc1)CCN(CCc1ccc([N+](=O)[O-])cc1)C2` is 89 to 91 °C.
`CCOc1ccccc1C(=O)CCC(=O)O` registered a melting point of 125 to 127 °C.
The figure for `CC1(C)CC(O)(C(F)(F)F)C(Nc2cccc3[nH]c(=O)ccc23)c2cc(O)c(Cl)cc21` (stereo not given) is 158 °C; for `COC1CCC2(C)C(=CCC3C2CCC2(C)C(C(C)=O)CCC32)C1` (stereo not given) it is 123 to 124 °C.
Take `CC(C)CN(C=NS(=O)(=O)c1c(Cl)nc2ccc(Cl)nn12)CC(C)C`: the melting point lay in the range of 151 to 154 °C.
`CCCCCCCCc1c(N)nc(-n2cccn2)nc1CC`: the melting point lay within 62 to 63 °C.
Next, `CCCCC(COc1cccc(COc2cccc3cccnc23)c1)OC(C)=O` (stereo not given): 85 to 86 °C; `CCOC(=O)c1oc2ccc(Cl)cc2c1C`: 80 to 82 °C.
Turning to `Cc1cc(Oc2ncc(Cl)cc2Cl)n[nH]1`, the melting point lay in the range of 109 to 111 °C.
For `COc1cn(-c2ccc(-n3cccn3)cc2F)nc(C(=O)N(C)OC)c1=O`, the melting point lay in the range of 187 to 189 °C.
Compound `CCCc1c(OCCCCCOc2ccc(C(=O)CCC(=O)O)cc2CCC(=O)O)ccc2c1OCCC2=O` had a melting point of 182 to 184 °C.
For the compound `CCCC(=O)c1nc(CCC)[nH]c1C#N`, the melting point fell in the range of 94 to 95 °C.
`COc1ccc(CC2SC(=O)NC2=O)c2c1N(Cc1ccc(NC(=O)c3ccc4ccccc4c3)cc1)C(=O)CC2` (stereo not given) displayed a melting point of 202 to 208 °C.
The compound `CC(=O)c1cc2cc(O)c(Cl)c(Cl)c2s1` showed a melting point of 199 to 201 °C.
As to `CCCC(Oc1cc(OC)ccc1C(=O)c1ccc(OCc2nc(-c3ccccc3)oc2C)cc1)C(=O)O` (stereo not given), the melting point lay in the range of 139 to 140 °C.
For `COc1cccc(SC(CC(=O)c2ccccc2)c2cccc([N+](=O)[O-])c2)c1` (stereo not given), the melting point is 105 °C.
`N#CN1CCC(c2nn(-c3ccc(C(F)(F)F)cc3)c3ccccc23)CC1` gave a melting point of 135 to 136 °C.
Next, `COc1cc(NC(=S)Nc2ccccc2)ccc1NNC=O`: 183 to 184 °C; `O=C(O)CCN1C(=O)c2ccc(C(=O)O)cc2C1=O`: 240 to 242 °C.
For `CCc1cc(N(Cc2ccc(-c3ccccc3-c3nnn(C(c4ccccc4)(c4ccccc4)c4ccccc4)n3)cc2)C(C)=O)cc(CC)n1`, the melting point fell in the range of 98 to 102 °C.
Take `NS(=O)(=O)c1cc(C(=O)CCCCN(CCc2ccccc2OC(F)(F)F)C(=O)C(F)(F)F)cc2c1OCC2`: the melting point lay in the range of 108 to 110 °C.
In turn, `CNC(=NC#N)NCc1cccnc1` showed a melting point of 183 to 184 °C.
Next, `Cn1cc2c3c(c(Cl)cc2n1)CCC3=CC#N`: 224 to 226 °C; `CNS(=O)(=O)NCCNC(=O)[C@@H](C[C@H](O)[C@H](C)NC(=O)OC(C)(C)C)C(C)C`: 75 to 95 °C.
In turn, `CN(Cc1ccccc1)c1ncnc2c(N3CCOCC3)nc(N3CCC(NCc4ccccc4)CC3)nc12` registered a melting point of 103 to 106 °C.
For `C=CCn1nc(-c2sc(C(=O)NC(C)C)nc2-c2ccccc2)ccc1=O`, the melting point is 166 to 167 °C.
Next, `COc1cccc(OC)c1C(=O)P(=O)(C(=O)c1c(OC)cccc1OC)c1ccccc1`: 155 °C; `COc1cc2c(Nc3ccc(C)c(OC(C)=O)c3)ncnc2cc1OCc1ccncc1`: 201 to 202 °C.
`COC(=O)C(=O)c1ccc(OCCOc2ccc(S(N)(=O)=O)cc2)cc1`: the melting point was in the range of 136 to 137 °C.
